# Target: T1, PDGF receptor (Rattus norvegicus, UniProt Q05030)
# T1 construct: cultured rat mesangial cells which are known to have the PDGF receptor; endogenous in cells; host or cells: primary mesangial cells cultured from glomeruli of Wistar-Kyoto rats (Charles River Japan), more than 5 passages
# Experiment: PDGF receptor autophosphorylation inhibition in cultured rat mesangial cells
# Type: cell-based
# Details: PDGF-BB 50 ng/ml
# Procedure: 1. Cultivation of rat mesangial cells
# The glomerulus-derived adhesive cells were subcultured several times to obtain mesangial cells. The mesangial cells subcultured more than 5 passages were used for the assay.
# 2.Evaluation of PDGF receptor autophosphorylation inhibition
# The mesangial cells were seeded in 24-well flat-bottom microtiter plates and then cultured in the medium containing 10% FCS for 2 days. When the cells were grown to about 3×10^4 cells per well, the medium was changed to the medium containing 0.5% FCS, the cultivation was continued for another 3 days, and then cell growth was arrested. The culture medium was removed, the adhered cells were washed with 500 μl of the medium, and 250 μl of the medium containing 0.1% bovine serum albumin (hereinafter abbreviated to BSA) was then added. A test drug dissolved in 1.38 μl of dimethyl sulfoxide (hereinafter abbreviated to DMSO) was added to this culture medium, and the admixture was incubated at 37° C. for 1 hour. Recombinant human platelet-derived growth factor BB chain (hereinafter abbreviated to PDGF-BB) was dissolved in the medium containing 0.1% BSA, 25 μl per well of the solution was added at final 50 ng/ml, and the incubation was continued at 37° C. for 10 minutes. […] The cells were allowed to stand at 4° C. for 30 minutes for lysis, and the resulting solution was thoroughly admixed with an equal amount of Tris-buffered physiological saline containing 1% sodium dodecyl sulfate (hereinafter abbreviated to SDS). […] After the electrophoresis, proteins in the gel were electrically transferred to a PVDF filter, which was then subjected to Western blotting using monoclonal antibodies against phosphotyrosine. Bands of PDGF receptor (molecular weight: about 180 Kda) which were autophosphorylated due to the addition of PDGF-BB were quantitated by a densitometer. Autophosphorylation rates for individual wells with drugs were calculated by setting measurements for PDGF receptor autophosphorylation in the wells without drugs in the presence and absence of PDGF-BB as 100% and 0%, respectively.
# T1 sequence (Q05030 32-1097): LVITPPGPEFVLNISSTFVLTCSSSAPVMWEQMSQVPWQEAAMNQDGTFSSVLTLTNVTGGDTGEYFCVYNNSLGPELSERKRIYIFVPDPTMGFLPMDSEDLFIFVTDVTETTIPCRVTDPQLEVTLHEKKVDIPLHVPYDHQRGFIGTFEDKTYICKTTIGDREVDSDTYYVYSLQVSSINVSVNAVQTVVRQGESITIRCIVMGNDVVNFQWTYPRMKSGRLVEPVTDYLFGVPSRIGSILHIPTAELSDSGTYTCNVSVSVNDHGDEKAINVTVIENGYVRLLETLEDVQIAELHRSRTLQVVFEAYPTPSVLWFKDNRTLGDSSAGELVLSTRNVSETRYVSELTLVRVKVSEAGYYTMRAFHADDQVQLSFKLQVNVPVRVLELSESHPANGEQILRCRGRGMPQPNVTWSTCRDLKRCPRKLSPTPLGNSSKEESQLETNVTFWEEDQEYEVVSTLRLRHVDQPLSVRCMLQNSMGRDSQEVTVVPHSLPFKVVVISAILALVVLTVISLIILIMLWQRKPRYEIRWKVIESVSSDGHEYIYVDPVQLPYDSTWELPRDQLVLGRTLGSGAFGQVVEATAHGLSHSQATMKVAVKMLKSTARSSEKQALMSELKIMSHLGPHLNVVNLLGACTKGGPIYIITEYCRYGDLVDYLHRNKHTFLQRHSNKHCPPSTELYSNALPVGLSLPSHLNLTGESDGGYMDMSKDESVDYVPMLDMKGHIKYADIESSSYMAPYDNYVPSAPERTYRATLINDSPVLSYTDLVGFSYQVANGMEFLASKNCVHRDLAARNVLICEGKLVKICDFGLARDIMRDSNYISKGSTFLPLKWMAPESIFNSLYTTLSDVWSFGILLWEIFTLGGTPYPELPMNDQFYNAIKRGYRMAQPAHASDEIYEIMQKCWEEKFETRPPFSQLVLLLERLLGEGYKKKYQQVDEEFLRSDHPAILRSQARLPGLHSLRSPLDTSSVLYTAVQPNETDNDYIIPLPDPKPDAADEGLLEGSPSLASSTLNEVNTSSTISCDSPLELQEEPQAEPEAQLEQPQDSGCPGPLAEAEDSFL
row,SMILES,IC50 [nM]
1,"COc1cc2nccc(Oc3ccc(NC(=O)Nc4ccc(F)c(F)c4F)cc3)c2cc1OC [Compound 257, N-(2,3,4-Trifluorophenyl)-N'-{4-[(6,7-dimethoxy-4-quinolyl)oxy]phenyl}urea]",7
2,"COc1cc2nccc(Oc3ccc(NC(=O)Nc4cccc(C)c4)cc3)c2cc1OC [Compound 55, N-{4-[(6,7-Dimethoxy-4-quinolyl)oxy]phenyl}-N'-(3-methylphenyl)urea]",3
3,"COc1cc2nccc(Oc3ccc(NC(=O)Nc4ccc(C(C)=O)cc4)cc3)c2cc1OC [Compound 49, N-(4-Acetylphenyl)-N'-{4-[(6,7-dimethoxy-4-quinolinyl)oxy]phenyl}urea]",18
4,"COc1ccc(NC(=O)Nc2ccc(Oc3ccnc4cc(OC)c(OC)cc34)cc2)c(OC)c1 [Compound 265, N-(2,4-Dimethoxyphenyl)-N'-{4-[(6,7-dimethoxy-4-quinolyl)oxy]phenyl}urea]",5
5,COc1cc2nccc(Oc3ccc(NC(=O)Nc4ccccc4C(F)(F)F)cc3)c2cc1OC [Compound 54],3
6,"COc1cc2nccc(Oc3ccc(NC(=O)Nc4ccc([N+](=O)[O-])cc4Cl)cc3)c2cc1OC [Compound 224, N-(2-Chloro-4-nitrophenyl)-N'-{4-[(6,7-dimethoxy-4-quinolyl)oxy]phenyl}urea]",87
7,COc1cc2nccc(Oc3ccc(NC(=O)Nc4ccc(C)cc4)cc3)c2cc1OC [Compound 131],3
8,"COc1cc2nccc(Oc3ccc(NC(=O)c4ccc(Br)cc4)cc3)c2cc1OC [Compound 75, N-{4-[(6,7-Dimethoxy-4-quinolinyl)oxy]phenyl}-(4-bromophenyl)carboxamide]",180
9,"CCCCc1ccc(C(=O)Nc2ccc(Oc3ccnc4cc(OC)c(OC)cc34)cc2)cc1 [Compound 69, N-{4-[(6,7-Dimethoxy-4-quinolinyl)oxy]phenyl}-(4-butylphenyl)carboxamide]",50
10,"COc1cccc(NC(=O)Nc2ccc(Oc3ncnc4cc(OC)c(OC)cc34)cc2)c1 [Compound 114, N-{4-[(6,7-Dimethoxy-4-quinazolinyl)oxy]phenyl}-N'-(3-methoxyphenyl)urea]",4
11,"COc1cc2nccc(Oc3ccc(C(=O)c4ccc(C(F)(F)F)cc4)cc3)c2cc1OC [Compound 29, (4-Trifluoromethylphenyl){4-[(6,7-dimethoxy-4-quinolyl)oxy]phenyl}methanone]",800
12,"COc1cc2nccc(Oc3ccc(NC(=O)NC(=O)c4ccccc4)cc3)c2cc1OC [Compound 189, N-Benzoyl-N'-{4-[(6,7-dimethoxy-4-quinolyl)oxy]phenyl}urea]",11
13,"COc1cc2nccc(Oc3ccc(NC(=O)Nc4c(C)cccc4Cl)cc3)c2cc1OC [Compound 226, N-(2-Chloro-6-methylphenyl)-N'-{4-[(6,7-dimethoxy-4-quinolyl)oxy]phenyl}urea]",11
14,"COc1cc2nccc(Oc3ccc(NC(=O)Nc4ccccc4O)cc3)c2cc1OC [Compound 281, N-(2-Hydroxyphenyl)-N'-{4-[(6,7-dimethoxy-4-quinolyl)oxy]phenyl}urea]",12
15,COc1cc2nccc(Oc3ccc(NC(=O)NC(C)C)cc3)c2cc1OC [Compound 135],43
16,COc1cc2nccc(Oc3cccc(C(C)=O)c3)c2cc1OC [Compound 6],450
17,"COc1cc2nccc(Oc3ccc(C(=O)c4ccc(N5CCOCC5)cc4)cc3)c2cc1OC [Compound 288, {4-[(6,7-Dimethoxy-4-quinolyl)oxy]phenyl}[4-morpholinophenyl]methanone]",24
18,"COc1cc2nccc(Oc3ccc(NC(=O)NC(=O)c4ccccn4)cc3)c2cc1OC [Compound 240, N-{4-[(6,7-dimethoxy-4-quinolyl)oxy]phenyl}-N'-(2-pyridinecarbonyl)urea]",150
19,"COCCNC(=O)Nc1ccc(Oc2ccnc3cc(OC)c(OC)cc23)cc1 [Compound 246, N-(2-Methoxyethyl)-N'-{4-[(6,7-dimethoxy-4-quinolyl)oxy]phenyl}urea]",13
20,"COc1cc2nccc(Oc3ccc(NC(=O)Nc4ccccc4SC)cc3)c2cc1OC [Compound 276, N-(2-Methylthiophenyl)-N'-{4-[(6,7-dimethoxy-4-quinolyl)oxy]phenyl}urea]",5

row,SMILES,IC50 [nM]
1,"COc1cc2nccc(Oc3ccc(NC(=O)Nc4cc(OC)c(OC)c(OC)c4)cc3)c2cc1OC [Compound 271, N-(3,4,5-Trimethoxyphenyl)-N'-{4-[(6,7-dimethoxy-4-quinolyl)oxy]phenyl}urea]",4
2,"COc1cc2nccc(Oc3ccc(NC(=O)c4ccc(C(C)=O)cc4)cc3)c2cc1OC [Compound 68, N-{4-[(6,7-Dimethoxy-4-quinolinyl)oxy]phenyl}-(4-acetylphenyl)carboxamide]",440
3,"COc1cc2nccc(Oc3ccc(NC(=O)c4ccc(N(C)C)cc4)cc3)c2cc1OC [Compound 67, N-{4-[(6,7-Dimethoxy-4-quinolinyl)oxy]phenyl}-(N,N-dimethylaminophenyl)carboxamide]",110
4,"COc1ccc(NC(=O)Nc2ccc(Oc3ccnc4cc(OC)c(OC)cc34)cc2)cc1OC [Compound 198, N-(3,4-Dimethoxyphenyl)-N'-{4-[(6,7-dimethoxy-4-quinolyl)oxy]phenyl}urea]",11
5,"COc1cc2nccc(Oc3ccc(NC(=O)Nc4ccccc4-c4ccccc4)cc3)c2cc1OC [Compound 175, N-(2-Biphenyl)-N'-{4-[(6,7-dimethoxy-4-quinolyl)oxy]phenyl}urea]",6
6,"COc1cc2nccc(Oc3ccc(NC(=O)Nc4ccc(Cl)cc4[N+](=O)[O-])cc3)c2cc1OC [Compound 238, N-(4-Chloro-2-nitrophenyl)-N'-{4-[(6,7-dimethoxy-4-quinolyl)oxy]phenyl}urea]",16
7,"CCCCc1ccccc1NC(=O)Nc1ccc(Oc2ccnc3cc(OC)c(OC)cc23)cc1 [Compound 232, N-(2-n-Butylphenyl)-N'-(4-[(6,7-dimethoxy-4-quinolyl)oxy]phenyl}urea]",18
8,COc1cc2nccc(Oc3ccc(NC(=O)Nc4cccc(N(C)C)c4)cc3)c2cc1OC [Compound 192],4
9,"COCCCNC(=O)Nc1ccc(Oc2ccnc3cc(OC)c(OC)cc23)cc1 [Compound 245, N-(3-Methoxypropyl)-N'-{4-[(6,7-dimethoxy-4-quinolyl)oxy]phenyl}urea]",6
10,"COc1cc2nccc(Oc3ccc4[nH]ccc4c3)c2cc1OC [Compound 16, 6,7-Dimethoxy-4-(5-indolyloxy)quinoline]",50
11,"COc1cc2nccc(Oc3ccc(NC(=O)NC4CCCCC4)cc3)c2cc1OC [Compound 253, N-(Cyclohexyl)-N'-{4-[(6,7-dimethoxy-4-quinolyl)oxy]phenyl}urea]",7
12,"COc1cc2nccc(Oc3ccc(NC(=O)Nc4ccc(O)cc4)cc3)c2cc1OC [Compound 269, N-(4-Hydroxyphenyl)-N'-{4-[(6,7-dimethoxy-4-quinolyl)oxy]phenyl}urea]",8
13,"CCOC(=O)c1cccc(NC(=O)Nc2ccc(Oc3ccnc4cc(OC)c(OC)cc34)cc2)c1 [Compound 233, N-(3-Ethoxycarbonylphenyl)-N'-{4-[(6,7-dimethoxy-4-quinolyl)oxy]phenyl}urea]",13
14,"COc1ccc(NC(=O)N(C)c2ccc(Oc3ccnc4cc(OC)c(OC)cc34)cc2)cc1 [Compound 200, N-Methyl-N-{4-[(6,7-dimethoxy-4-quinolyl)oxy]phenyl}-N'-(4-methoxyphenyl)urea]",4
15,"COc1cc2nccc(Oc3ccc(NC(=O)Nc4ccccc4Cl)cc3)c2cc1OC [Compound 266, N-(2-Chlorophenyl)-N'-{4-[(6,7-dimethoxy-4-quinolyl)oxy]phenyl}urea]",1
16,"COc1cc2nccc(Oc3ccc(NC(=O)NC(C)c4cccc5ccccc45)cc3)c2cc1OC (stereo not shown) [Compound 231, N-{4-[(6,7-dimethoxy-4-quinolyl)oxy]phenyl)-N'-[1-(1-naphthyl)ethyl]urea]",19
17,"COc1ccccc1NC(=O)Nc1ccc(Oc2ncnc3cc(OC)c(OC)cc23)cc1 [Compound 113, N-{4-[(6,7-Dimethoxy-4-quinazolinyl)oxy]phenyl)-N'-(2-methoxyphenyl)urea]",4
18,"COc1cc2nccc(Oc3ccc(NC(=O)Nc4ccc(Cl)c([N+](=O)[O-])c4)cc3)c2cc1OC [Compound 228, N-(4-Chloro-3-nitrophenyl)-N'-{4-[(6,7-dimethoxy-4-quinolyl)oxy]phenyl}urea]",55
19,"COc1cc(OC)c(NC(=O)Nc2ccc(Oc3ccnc4cc(OC)c(OC)cc34)cc2)cc1Cl [Compound 241, N-(3-Chloro-4,6-dimethoxyphenyl)-N'-{4-[(6,7-dimethoxy-4-quinolyl)oxy]phenyl}urea]",18
20,"COc1cc2nccc(Oc3ccc(NC(=O)C4CCCCC4)cc3)c2cc1OC [Compound 63, N-{4-[(6,7-Dimethoxy-4-quinolinyl)oxy]phenyl}-cyclohexanecarboxamide]",400

# Reference: patent US6143764A, “Quinoline and quinazoline derivatives inhibiting platelet-derived growth factor receptor autophosphorylation and pharmaceutical compositions containing the same” (priority 1995, dated 2000)
